Consider 12 compounds from article PMC4264242, “Androgen Receptor Antagonists and Anti-Prostate Cancer Activities of Some Newly Synthesized Substituted Fused Pyrazolo-, Triazolo- and Thiazolo-Pyrimidine Derivatives” (International Journal of Molecular Sciences, 2014).

The target of one series is T1, mutant AR in LNCaP cells (Homo sapiens, UniProt P10275, T878A).
T1 construct: endogenous in cells; host or cells: LNCaP cells (only reporter plasmids transfected)
T1 sequence (P10275 1-920 T878A): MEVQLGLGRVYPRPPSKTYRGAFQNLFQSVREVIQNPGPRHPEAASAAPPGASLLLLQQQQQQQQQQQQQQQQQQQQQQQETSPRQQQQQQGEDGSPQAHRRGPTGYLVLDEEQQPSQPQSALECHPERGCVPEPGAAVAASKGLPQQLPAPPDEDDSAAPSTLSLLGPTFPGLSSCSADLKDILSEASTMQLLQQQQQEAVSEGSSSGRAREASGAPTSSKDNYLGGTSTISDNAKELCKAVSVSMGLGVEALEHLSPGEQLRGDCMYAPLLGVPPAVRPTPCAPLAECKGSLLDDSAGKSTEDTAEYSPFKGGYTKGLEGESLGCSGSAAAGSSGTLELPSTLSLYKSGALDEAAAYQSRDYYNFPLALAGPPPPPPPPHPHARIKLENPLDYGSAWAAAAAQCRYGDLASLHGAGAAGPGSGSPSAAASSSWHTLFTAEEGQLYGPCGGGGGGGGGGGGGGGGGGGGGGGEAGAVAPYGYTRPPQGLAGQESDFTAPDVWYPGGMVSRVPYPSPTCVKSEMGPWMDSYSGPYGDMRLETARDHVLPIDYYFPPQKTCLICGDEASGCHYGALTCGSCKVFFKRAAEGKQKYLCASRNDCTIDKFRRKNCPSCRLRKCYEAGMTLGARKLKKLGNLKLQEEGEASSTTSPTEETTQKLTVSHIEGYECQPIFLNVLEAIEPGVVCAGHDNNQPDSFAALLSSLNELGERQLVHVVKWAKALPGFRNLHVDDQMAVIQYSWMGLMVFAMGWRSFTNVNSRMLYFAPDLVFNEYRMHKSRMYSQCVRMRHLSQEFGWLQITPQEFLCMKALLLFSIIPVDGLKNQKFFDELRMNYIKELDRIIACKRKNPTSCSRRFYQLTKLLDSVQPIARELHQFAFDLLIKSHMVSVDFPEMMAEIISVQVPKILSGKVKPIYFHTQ
Briefly: Anti-prostate cancer screening, anti-androgenic bioassay (AR transactivation) in LNCaP cells. The note with it: 1 nM DHT, 24 h. In kind it is cell-based. As for the experimental part:
(§1) Human prostate cancer LNCaP and PC-3 cells were maintained in RPMI medium and Dulbecco’s minimum essential medium (DMEM), respectively. Both media were supplemented with penicillin (25 units/mL), streptomycin ([…]), and 10% fetal calf serum. For the androgen receptor transactivation assay, an androgen-dependent reporter gene transcription test was employed as the primary screening for potential anti-androgen identification. This assay was first performed in LNCaP cells, which express a clinically relevant mutant AR. […] Wild type AR transactivation assay was performed in PC-3 host cells, which lack an endogenous, functional AR. The method and conditions of cell and gene transfection have been described previously. In brief, cells were plated in 24-well tissue culture dishes for 24 (PC-3 cells) or 48 (LNCaP cells) h prior to transfection. Subsequently, LNCaP cells were transfected with a reporter gene, MMTV-luciferase, which contains a MMTV-long terminal repeat (LTR) promoter and an androgen receptor binding element, and Renilla Luciferase Control Reporter Vectors 40 (PRL-SV40), which served as an internal control for transfection efficiency. PC-3 cells were transfected with a wild type AR expression plasmid, plasmide gene-5 androgen recptor (pSG5AR), in addition to the above-mentioned MMTV-luciferase reporter gene and PRL-SV40 internal control. SuperFect (Qiagen, Chatsworth, CA, USA) was employed as the transfection reagent following the manufacturer’s recommendations. At the end of a 5-h transfection, the medium was changed to DMEM or RPMI supplemented with 10% charcoal dextran-stripped, i.e., androgen-depleted, serum. After 24 h, the cells were treated with 1 nM of DHT and/or test compounds at the designated concentrations.
(§2) After 24 h the cells were harvested for luciferase activity assay using the Dual Luciferase Assay System (Promega, Madison, WI, USA.). The derived data was expressed as relative luciferase activity normalized to the internal luciferase control.

The nature of series [1]: Acute toxicity (LD50) in rats. Conditions: rat, in vivo, rats injected with increasing doses. The procedure: The LD50 was determined by using rats injected with different increasing doses of the synthesized compounds. The dose that killed 50% of the animals was calculated according to Austen and Brocklehurst (Table 4).
The target of series [2] is T2, wild type AR in PC-3 cells (Homo sapiens, UniProt P10275).
T2 construct: expressed in transfected cells; host or cells: PC-3 cells (lack endogenous functional AR), transient transfection with SuperFect
T2 sequence (P10275 1-920): T1 sequence (P10275 1-920 T878A) with A878T
Briefly: Anti-prostate cancer screening, anti-androgenic bioassay (wild type AR transactivation) in PC-3 cells. Conditions: PC-3 cells transfected with wild type AR, 1 nM DHT, 24 h. The class given is cell-based. As for the experimental part: as §1, §2

In the next series the test system is castrated immature rats. Briefly: In vivo anti-androgenic activity in castrated immature rats treated with testosterone propionate. The note with it: for ED50: Rattus norvegicus, read-out: ED50, in vivo anti-androgen activity; for % (Inhibition), in vivo anti-androgen activity: inhibition of TP effect (TP 0.5 mg/kg s.c. once daily for 5 days), tested compound 10-30 mg/kg p.o. The arrangement: species or system rat. From the text: […] male Wistar rats were obtained from the Animal House Colony, Research Institute of Ophthalmology, Giza, Egypt. Prepubertal male rats aged 3 weeks were castrated using the scrotal route under ether anesthesia.

The mark [3] stands for this setting: other: injected (kind of injection not stated).

Where a chain is given by its changes, count along the chain named. “Also recorded” adds a separate entry of the source.

In turn, `N#Cc1cnn(-c2nc3c(ccc4ccccc43)s2)c1/N=C\NN` [Compound 9, 2-[3-Imidoformic hydrazido-4-cyanopyrazol-2-yl]naphthalino[1,2-d]thiazole] registered an IC50 against mutant AR in LNCaP cells of 76.6 nM. The compound further showed an LD50 in series [1] (other: injected) of 125 mg/kg. In addition, in series [2], the IC50 was 269 nM. In the series with castrated immature rats, the ED50 amounted to 0.095 mg/kg and the “% (Inhibition), in vivo anti-androgen activity” value (from here on “% (Inhibition)”) is listed as 86.56%.
As for `Nc1ncnc2c1cnn2-c1nc2c(ccc3ccccc32)s1` [Compound 3], at mutant AR in LNCaP cells, the IC50 was 58.6 nM. Also, the LD50 in series [1] (setting [3]) amounted to 175 mg/kg. The compound also had an IC50 in series [2] of 177 nM. In the series with castrated immature rats, the ED50 stood at 0.063 mg/kg and the “% (Inhibition)” value was 91%.
In the case of `CCOC1SCC2NC(=O)c3cnn(-c4nc5c(ccc6ccccc65)s4)c3N21` (stereo not shown) [Compound 13, 2-[3-Ethoxy-5-dihydro-6H-7-oxo-[1,3]thiazolo[3,4-b]pyrimidino[4,5-c]pyrazol-2-yl]naphthalino[1,2-d]thiazole], at mutant AR in LNCaP cells, it took 49.6 nM to reach half-maximal inhibition (IC50). In series [1] (other: injected), this compound displayed an LD50 of 443 mg/kg. Moreover, half-maximal inhibition in series [2] (IC50) was put at 146 nM. For the same compound, in the series with castrated immature rats, the ED50 came to 0.047 mg/kg and the “% (Inhibition)” value is on record as 97.56%.
In turn, `N=c1c2cnn(-c3nc4c(ccc5ccccc54)s3)c2ncn1NC(=O)c1ccccc1` [Compound 11] had an IC50 against mutant AR in LNCaP cells of 61.6 nM. In series [1] (setting [3]), this compound showed an LD50 of 325 mg/kg. The compound further came in with an IC50 in series [2] of 180 nM. Moreover, in the series with castrated immature rats, the ED50 came out at 0.045 mg/kg and the “% (Inhibition)” value came out at 90.01%.
With `NNc1nc2c(ccc3ccccc32)s1` [Compound 1, 1-(naphtho[1,2-d]thiazol-2-yl)hydrazine], the “IC50 LNCaP, anti-prostate cancer activity” value against mutant AR in LNCaP cells was “devoid from any activities; also recorded: Inactive”. Moreover, the LD50 in series [1] (other: injected) was 1160 mg/kg. In series [2], the “IC50 PC-3, anti-prostate cancer activity” value is listed as “devoid from any activities; also recorded: Inactive”. The “ED50, in vivo anti-androgen activity” value with castrated immature rats (castrated immature rats, TP 0.5 mg/kg s.c., compound p.o.) was “Inactive”. Further, the “% (Inhibition)” value in the series with castrated immature rats is given as “Inactive”; with castrated immature rats (listed as compound 1), “devoid from any activities”.
In turn, `Nc1nc(=S)[nH]c2c1cnn2-c1nc2c(ccc3ccccc32)s1` [Compound 5, 2-[6-Amino-3H-4-thiopyrimidino[4,5-c]pyrazol-2-yl]naphthalino[1,2-d]thiazole] had a concentration for half-maximal inhibition (IC50) on mutant AR in LNCaP cells of 64.3 nM. The LD50 in series [1] (other: injected) turned out to be 267 mg/kg. This compound displayed an IC50 in series [2] of 190 nM. Further, in the series with castrated immature rats, the ED50 was 0.089 mg/kg and the “% (Inhibition)” value came out at 89.09%.
On the same counts, the results for `CCO/C=N\c1c(C#N)cnn1-c1nc2c(ccc3ccccc32)s1` [Compound 8, 2-[3-Ethylimidoformat-4-cyanopyrazol-2-yl]naphthalino[1,2-d]thiazole] are 78.5 nM, 236 mg/kg, 279 nM, 0.097 mg/kg and 85.43%.
On the same counts, the results for `CCOC1SCC(=O)N1c1c(C#N)cnn1-c1nc2c(ccc3ccccc32)s1` (stereo not shown) [Compound 12, 2-[3-(2-Ethoxy-4-oxo-5-dihydro-1,3-thiazol-3-yl)-4-cyanopyrazol-2-yl]-naphthalino[1,2-d]thiazole] are 80 nM, 234 mg/kg, 289 nM, 0.098 mg/kg and 84.65%.
`Nc1n[nH]c2c1cnn2-c1nc2c(ccc3ccccc32)s1` [Compound 4] came in with an IC50 against mutant AR in LNCaP cells of 56.6 nM. The same compound displayed an LD50 in series [1] (setting [3]) of 266 mg/kg. The IC50 in series [2] was determined as 179 nM. For the same compound, in the series with castrated immature rats, the ED50 came to 0.051 mg/kg and the “% (Inhibition)” value was determined as 93.98%.
On mutant AR in LNCaP cells, `Cc1nc2c3cnn(-c4nc5c(ccc6ccccc65)s4)c3ncn2n1` [Compound 10, 2-[6-Methyl[1,2,4]triazolo[2,3-c]pyrimidino[6,5-c]pyrazol-2-yl]naphthalino[1,2-d]thiazole] came in with an IC50 of 43.5 nM. Further, in series [1] (other: injected), the LD50 was 316 mg/kg. The same compound showed an IC50 in series [2] of 109 nM. In the series with castrated immature rats, the ED50 came out at 0.071 mg/kg and the “% (Inhibition)” value came out at 98.87%.
Regarding `N#Cc1cnn(-c2nc3c(ccc4ccccc43)s2)c1N` [Compound 2, 2-[3-Amino-4-cyanopyrazol-2-yl]naphthalino[1,2-d]thiazole], the IC50 against mutant AR in LNCaP cells came to 51.5 nM. Further, the LD50 in series [1] (other: injected) is 163 mg/kg. Also, in series [2], half-maximal inhibition (IC50) required 157 nM. In addition, in the series on castrated immature rats, the ED50 worked out at 0.049 mg/kg and the “% (Inhibition)” value is listed as 95.49%.
`N=c1sc(=S)[nH]c2c1cnn2-c1nc2c(ccc3ccccc32)s1` [Compound 6, 2-[6-Imino-3H-4-thiothiazino[4,5-c]pyrazol-2-yl]naphthalino[1,2-d]thiazole] returned an IC50 on mutant AR in LNCaP cells of 72.4 nM. The compound further registered an LD50 in series [1] (other: injected) of 258 mg/kg. In series [2], this compound displayed an IC50 of 201 nM. Besides, in the series on castrated immature rats, the ED50 is 0.092 mg/kg and the “% (Inhibition)” value came out at 88.76%.
